Here are results for 11 molecules from patent US4430427A, “Red absorbing combination of alcohol oxidase and an azide compound” (Phillips Petroleum Company, priority 1980, dated 1984).

The target in assay [1] is T1, Pichia alcohol oxidase (Komagataella phaffii, UniProt F2QY27).
T1 sequence (F2QY27 2-663 limits assumed): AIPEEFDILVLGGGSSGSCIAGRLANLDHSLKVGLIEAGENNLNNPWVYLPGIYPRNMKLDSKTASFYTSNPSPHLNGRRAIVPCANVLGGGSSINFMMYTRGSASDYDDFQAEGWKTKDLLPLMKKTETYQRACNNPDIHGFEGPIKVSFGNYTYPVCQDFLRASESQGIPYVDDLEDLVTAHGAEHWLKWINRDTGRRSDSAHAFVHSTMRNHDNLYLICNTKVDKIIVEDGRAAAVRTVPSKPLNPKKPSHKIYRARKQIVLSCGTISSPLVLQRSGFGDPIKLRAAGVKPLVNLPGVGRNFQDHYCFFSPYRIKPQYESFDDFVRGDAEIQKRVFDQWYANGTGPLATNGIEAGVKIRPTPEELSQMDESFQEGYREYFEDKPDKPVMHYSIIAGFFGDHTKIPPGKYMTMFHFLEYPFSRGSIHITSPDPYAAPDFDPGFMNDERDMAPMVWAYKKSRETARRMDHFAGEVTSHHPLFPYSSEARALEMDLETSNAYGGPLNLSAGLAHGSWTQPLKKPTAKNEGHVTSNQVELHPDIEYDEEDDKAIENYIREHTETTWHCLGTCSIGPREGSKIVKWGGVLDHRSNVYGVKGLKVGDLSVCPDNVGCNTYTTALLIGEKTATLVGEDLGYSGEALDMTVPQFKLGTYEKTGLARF
The note with it: crude enzyme saturated with salt crystals; assayed 1-2 minutes later.
Method: The alcohol oxidase activity for reaction with methanol was determined by the following assay procedure (dye-peroxidase method). A dye-buffer mixture was prepared by mixing 0.1 mL of an o-dianisidine solution (1 weight % o-dianisdine in water) with 12 mL of aerated 0.1 M sodium phosphate buffer (pH 7.5). The assay mixture was prepared with 2.5 mL of the dye-buffer mixture, 50 μL of methanol, 10 μL of a peroxidase solution (1 mg of horse-radish peroxidase-Sigma, Type II), and 25 μL of the alcohol oxidase solution. The assay mixture was maintained at 25° C. in a 4×1×1 cm cuvette and the increase in absorbance by the dye at 460 nm was recorded for 2 to 4 minutes. The enzyme activity was calculated by [formula] wherein 11.5 is a factor based on a standard curve prepared with known aliquots of H2 O2 and ΔA is the change in absorbance during the experimental interval.

The target of assay [2] is T1, Pichia alcohol oxidase. As to the method:
The samples are allowed to stand at room temperature for 15 minutes. Color and enzyme activity are monitored at that time.

For assay [3], the target named is Hansenula polymorpha alcohol oxidase (Pichia angusta, UniProt P04841). As to conditions: 1 mL crude Hansenula polymorpha enzyme preparation, a few crystals (one mg). As to the method:
Fermentation effluent from the aerobic fermentation of Hansenula polymorpha (prepared as described in Example II) was adjusted to pH 7.5 with concentrated ammonium hydroxide. Sample was homogenized and disrupted on a Dyno-Mill Model KDL using a 0.6 L vessel in a continuous operation at 30° C. using belt combination #3 and a flow of 20-30 mL/hr. The beads were lead-free glass beads with a diameter of 0.3-0.5 mm. The resulting homogenate was centrifuged for 20 minutes at 10,000×g to yield a cell-free supernatant.
One mL of this crude enzyme preparation was mixed with a few crystals (qualitative--one mg) of NaN3 is a test tube.

Assay [4] addresses T2, purified Pichia alcohol oxidase (Komagataella phaffii, UniProt F2QY27).
T2 construct: saturated solution of purified Pichia alcohol oxidase; endogenous in cells
T2 sequence (F2QY27 2-663 limits assumed): T1 sequence (F2QY27 2-663 limits assumed)
As to the kind of experiment: biochemical. The assay is classed as biochemical, Pichia pastoris. As to the method:
A series of solutions were prepared by combining 3.9 mL standard phosphate buffer (pH 7.5) having NaN3 (g/l) as set forth in Table 8, 15 μL saturated solution of purified Pichia alcohol oxidase, and 50 μL methanol solution (% V/V in H2 O). Reaction velocity V (rate of methanol oxidation in the presence of alcohol oxidase) was monitored by a dissolved oxygen probe by following oxygen consumption (oxygen is consumed as alcohol substrate, S, is oxidized in the presence of the enzyme).

Assay [5] has as its target alcohol oxidase (Komagataella phaffii, UniProt F2QY27). The procedure: 3 mL of purified enzyme containing 3 mg/mL enzyme (crystallized as described in Example I) were placed in a 1-cm quartz cuvette. The solution was scanned from 350-550 nm.
where [formula] ΔA522 =change in absorbance at 522 nm upon NaN3 addition, and
ΔA522^max =total change in absorbance at 522 nm upon saturation of enzyme solution with NaN3.

Each structure is given as a SMILES string. Like-named read-outs stand apart in the source and are kept apart here.

Hansenula polymorpha alcohol oxidase, sequence (P04841 2-664 limits assumed): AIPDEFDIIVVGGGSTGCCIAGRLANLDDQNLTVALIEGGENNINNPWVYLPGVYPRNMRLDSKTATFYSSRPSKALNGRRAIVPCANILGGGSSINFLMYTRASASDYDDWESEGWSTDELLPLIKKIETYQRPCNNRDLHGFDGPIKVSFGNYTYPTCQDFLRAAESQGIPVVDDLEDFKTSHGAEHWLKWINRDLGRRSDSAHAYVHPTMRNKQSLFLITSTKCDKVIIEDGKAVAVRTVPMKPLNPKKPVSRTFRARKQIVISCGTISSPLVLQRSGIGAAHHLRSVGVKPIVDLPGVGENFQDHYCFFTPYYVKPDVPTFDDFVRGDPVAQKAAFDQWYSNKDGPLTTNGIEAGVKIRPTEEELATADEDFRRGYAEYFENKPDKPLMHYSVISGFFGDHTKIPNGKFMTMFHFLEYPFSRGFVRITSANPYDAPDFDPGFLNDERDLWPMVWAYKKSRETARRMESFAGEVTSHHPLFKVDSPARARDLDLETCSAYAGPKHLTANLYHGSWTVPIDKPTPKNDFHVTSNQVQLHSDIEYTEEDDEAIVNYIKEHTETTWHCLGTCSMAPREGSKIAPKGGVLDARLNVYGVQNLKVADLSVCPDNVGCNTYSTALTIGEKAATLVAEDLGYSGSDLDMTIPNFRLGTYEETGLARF

Take `[Cl-].[K+]` [KCl]: the “Relative Enz. Act.” value in assay [1] came to 2.

Regarding `O=P([O-])(O)O.[K+]` [KH2 PO4], the “Relative Enz. Act.” value in assay [1] came out at 0.

In the case of `N#CS` [KSCN], the “EU/mL* at 15 min.” value in assay [2] is recorded as 25 EU/mL.

Take `[Cl-].[Li+]` [LiCl]: the “Relative Enz. Act.” value in assay [1] worked out at 0.

As for `[Cl-].[Cl-].[Mg+2]` [MgCl2], in assay [1], the “Relative Enz. Act.” value was 0.

On to `O=P([O-])([O-])O.[Na+].[Na+]` [Na2 HPO4], for which the “Relative Enz. Act.” value in assay [1] stood at 4.

On to `CC(=O)O` [NaAc], for which the “Relative Enz. Act.” value in assay [1] was determined as 4.

Regarding `[Cl-].[Na+]` [NaCl], in assay [1], the “Relative Enz. Act.” value amounted to 1.

Consider `O=P([O-])(O)O.[Na+]` [NaH2 PO4], for which the “Relative Enz. Act.” value in assay [1] came to 0.

The Ki is a measure of affinity in units of concentration, obtained from inhibition or displacement. Take `[N-]=[N+]=[N-].[Na+]` [NaN3, sodium azide]: in assay [2] (a few crystals (about 1 mg) added to 1 mL purified enzyme solution, room temperature), the “Color at 15 min.” value is “Red immediately”. Moreover, in assay [2] (a few crystals (about 1 mg) added to 1 mL purified enzyme solution, room temperature, 15 min), the “EU/mL* at 15 min.” value is given as 75 EU/mL. For the same molecule, the “Color on mixing with crude enzyme preparation” value in assay [3] is given as “Red color forms upon mixing”. Moreover, the 1/V entry in assay [4] (NaN3 .0001 g/l, MeOH .004 M) was “.0488”; in assay [4] (NaN3 .0001 g/l, MeOH .016 M), “.04”; in assay [4] (NaN3 .0002 g/l, MeOH .0005 M), “.2632”; in assay [4] (NaN3 .0002 g/l, MeOH .001 M), “.1429”; in assay [4] (NaN3 .0002 g/l, MeOH .002 M), “.0725”; in assay [4] (NaN3 .0002 g/l, MeOH .004 M), “.0588”. Further, the 1/V entry is recorded as “.0455” in assay [4] (NaN3 .0002 g/l, MeOH .008 M); “.0377” in assay [4] (NaN3 .0002 g/l, MeOH .016 M); “.625” in assay [4] (NaN3 .0005 g/l, MeOH .0005 M); “.4” in assay [4] (NaN3 .0005 g/l, MeOH .001 M); “.1667” in assay [4] (NaN3 .0005 g/l, MeOH .002 M); “.1111” in assay [4] (NaN3 .0005 g/l, MeOH .004 M). Moreover, the 1/V entry is listed as “.0813” in assay [4] (NaN3 .0005 g/l, MeOH .008 M); “.0602” in assay [4] (NaN3 .0005 g/l, MeOH .016 M); 1 in assay [4] (NaN3 .001 g/l, MeOH .001 M); “.333” in assay [4] (NaN3 .001 g/l, MeOH .002 M); “.1667” in assay [4] (NaN3 .001 g/l, MeOH .004 M); “.111” in assay [4] (NaN3 .001 g/l, MeOH .008 M). The 1/V entry in assay [4] (NaN3 .001 g/l, MeOH .016 M) is listed as “.0645”. Moreover, the inhibition constant (Ki) in assay [4] (estimated from 1/V vs 1/[S] plots, pH 7.5, read-out: binding constant for NaN3 inhibitor, Ki) was 6 µM. The type of inhibition result in assay [4] (from 1/V vs 1/[S] plots) is given as “linear, mixed-type inhibition”. The “fractional saturation, .PHI.” value is on record as 1.000 in assay [5] (Excess (solid crystals) NaN3); “.167” in assay [5] (Moles N3^-/Moles Enzyme 1.15); “.207” in assay [5] (Moles N3^-/Moles Enzyme 1.54); “.259” in assay [5] (Moles N3^-/Moles Enzyme 1.92); “.309” in assay [5] (Moles N3^-/Moles Enzyme 2.31); “.407” in assay [5] (Moles N3^-/Moles Enzyme 3.02). For the same molecule, the “fractional saturation, .PHI.” value is given as “.475” in assay [5] (Moles N3^-/Moles Enzyme 3.85); “.525” in assay [5] (Moles N3^-/Moles Enzyme 4.61); “.580” in assay [5] (Moles N3^-/Moles Enzyme 5.38); “.630” in assay [5] (Moles N3^-/Moles Enzyme 6.25); “.679” in assay [5] (Moles N3^-/Moles Enzyme 6.92); “.062” in assay [5] (Moles N3^-/Moles Enzyme .38). In assay [5] (Moles N3^-/Moles Enzyme .77), the “fractional saturation, .PHI.” value is “.105”. The “number of azide binding sites (extrapolation of the stoichiometric line to the baseline)” value in assay [5] (plot of .PHI. vs ligand/enzyme mole ratio) is 7.6 moles of azide per mole of enzyme.

In the case of `CO` [methanol], the Kd in assay [4] (estimated from 1/V vs 1/[S] plots, pH 7.5, read-out: binding constant for methanol substrate, KS) is 600 µM.
